“Also recorded” adds a separate entry of the source.

One assay concerns PPM tumor bearing mice. Briefly: Flow cytometry of tumor-infiltrating immune cells in PPM tumors. The conditions noted are these: mouse, in vivo. As for the experimental part:
(§1) Tumors were first mechanically disrupted by chopping, then chemically digested in collagenase buffer (8 mL DMEM, 0.1 mL 1M HEPES, 0.5 mL FBS, 0.2 mL Pen/Strep, 1 m, 10× collagenase/hyaluronidase (Stemcell Technologies), 0.2 mL of 1 mg/mL DNase I (Stemcell Technologies) at 37° C. for 45 min. Single-cell suspensions of spleen and lymph nodes were obtained by mashed through a 70 um strainer using the plunger of a 3 mL or 5 mL syringe. Single cells suspensions were treated with red blood lysis buffer (4 mL NH4Cl+1 mL PBS with 2% calf serum) and washed with FACS buffer. Single cells suspensions were incubated with LIVE/DEAD Fixable Aqua Dead Cell Stain (Life Technologies, Cat # L34965) for 30 min and then blocked with anti-CD16/32 (BioLegend, clone 93) for 20 min on ice. Samples were then incubated with appropriate antibodies for 30 min. on ice. The Foxp3 staining buffer set (eBioscience, Cat #00-5523-00) was applied for intracellular markers staining. For the intracellular cytokine analysis, cells were stimulated with Leukocyte Activation Cocktail (BD Biosciences, Cat #550583) at 37° C. for 5 hours prior to FACS staining. […] Flow cytometry was performed on an LSR II (BD Biosciences) or LSRFortessa™ HTS (BD Biosciences) at the DFCI flow cytometry core facility, and all the data were analyzed using FlowJo software.
A general note: Flow cytometry measures light scatter and fluorescence of single cells or particles in a stream.

For a further assay, the system named is PBM tumor-bearing mice. Briefly: Flow cytometry of peripheral blood and splenic immune cells. The conditions noted are these: mouse, in vivo. Here is the method:
(§2) Tumors were first mechanically disrupted by chopping, then chemically digested in collagenase buffer (8 mL DMEM, 0.1 mL 1M HEPES, 0.5 mL FBS, 0.2 mL Pen/Strep, 1 m, 10× collagenase/hyaluronidase (Stemcell Technologies), 0.2 mL of 1 mg/mL DNase I (Stemcell Technologies) at 37° C. for 45 min. Single-cell suspensions of spleen and lymph nodes were obtained by mashed through a 70 um strainer using the plunger of a 3 mL or 5 mL syringe. Single cells suspensions were treated with red blood lysis buffer (4 mL NH4Cl+1 mL PBS with 2% calf serum) and washed with FACS buffer. Single cells suspensions were incubated with LIVE/DEAD Fixable Aqua Dead Cell Stain (Life Technologies, Cat # L34965) for 30 min and then blocked with anti-CD16/32 (BioLegend, clone 93) for 20 min on ice. Samples were then incubated with appropriate antibodies for 30 min. on ice. The Foxp3 staining buffer set (eBioscience, Cat #00-5523-00) was applied for intracellular markers staining. For the intracellular cytokine analysis, cells were stimulated with Leukocyte Activation Cocktail (BD Biosciences, Cat #550583) at 37° C. for 5 hours prior to FACS staining. The following antibodies were used in the experiments and were purchased from BioLegend unless otherwise indicated: CD45 (clone 30-F11), TCRβ (clone H57-597), CD4 (clone RM4-5), CD8 (clone 53-6.7), CD44 (clone IM7), CD62L (MEL-14), CD25 (PC61), IFNγ (clone XMG1.2), TNFα(clone MP6-XT22), PD-1 (clone 29F.1A12), Tim-3 (clone RMT3-23), LAG-3 (clone C9B7W), CD11b (clone M1/70), CD11c (clone […]), F4/80 (clone BM8), Gr-1 (clone RB6-BC5), Ly-6C (clone HK1.4), Ly-6G (clone 1A8), MHCII (clone M5/114.15.2), CD80 (clone 16-10A1), CD86 (clone GL-1), MHC1 (clone KH114). FoxP3 (clone FJK-16 s; eBioscience), Phospho-IRF-3 (Ser396) (clone D6O1M, Cell signaling technology), Phospho-TBK1/NAK (Ser172) (clone D52C2, Cell signaling technology), and LIVE/DEAD® Fixable Aqua Dead Cell Stain Kit (Life Technologies Cat L34965). Flow cytometry was performed on an LSR II (BD Biosciences) or LSRFortessa™ HTS (BD Biosciences) at the DFCI flow cytometry core facility, and all the data were analyzed using FlowJo software.

Assay [1] relates to STING pathway in PBM tumors. Briefly: STING pathway activation in PBM tumors (p-TBK1/p-IRF3 flow cytometry, IFN-β/CXCL10 RT-qPCR). The assay is classed as in vivo, mouse. The settings on record: for phosphorylation of TBK1 and IRF3 in intratumoral DCs and macrophages: PBM tumors. As for the experimental part:
as §2, with “FoxP3 (clone FJK-16 s; eBioscience), Phospho-IRF-3 (Ser396) (clone D6O1M, Cell signaling technology), Phospho-TBK1/NAK (Ser172) (clone D52C2, Cell signaling technology), and LIVE/DEAD® Fixable Aqua Dead Cell Stain Kit (Life Technologies Cat L34965).” left out, “software. […]” for “software.”

Assay [2] relates to STING pathway in PPM tumors. The assay is described as follows: STING pathway activation in PPM tumors. The settings on record: mouse, in vivo. As for the experimental part:
as §1, with “software. […]” for “software.”

Assay [3] concerns STING pathway in BMDCs co-cultured with PBM cells. The assay is described as follows: Co-culture of BMDCs with olaparib-treated PBM tumor cells. The format is cell-based, mouse. Here is the method: Blood was obtained by retro-orbital sampling at intermediate time points or experimental end points. Blood cells and plasma/sera were separated by centrifugation at 1,500×g for 5 min. at 4° C. Plasmaisera were sent out to Eve Technologies for cytokine array analysis (Chemokine Array 31-Plex and Mouse Procarta IFN 2-plex Featured Assay). Plasma/sera were applied to ELISA according to manufacturer's instructions. For in vitro experiments, cell culture supernatants were obtained by centrifugation at 1,500×g for 5 min. at 4° C. to remove all debris and cells, and were then subjected to ELISA analysis. IFN-β was detected using the LEGEND MAX™ Mouse IFN-β ELISA Kit (BioLegend).
Bone marrow cells were isolated from FVB/NJ mice and cultured in RPMI-1640 containing 10% FBS and 20 ng/ml GM-CSF. BMDCs (bone marrow derived dendritic cells) were harvested for in vitro co-culture assay on day 7 to day 10. About 3×10^5 PBM or PPM tumor cells were cultured in a 6-well plate for 24 hr. and then treated with DMSO or olaparib. After 24 hr incubation with DMSO, olaparib, or olaparib in combination with other drugs (cell cycle inhibitor or apoptosis inhibitor), drugs were removed and tumor cells were washed twice with PBS. BMDCs were added and co-cultured with PBM or PPM cells at a ratio of 1:1 in 1.5 ml culture media in the presence of GM-CSF (20 ng/ml) and lipofectamine (2 μl) for 24 hr. Co-cultured cells were harvested for flow cytometry analysis and floating cells (percentage of BMDCs is about 90%), or RNA analysis. Cell culture supernatants were collected for detection of IFN-β with the ELISA kit. BMDCs generated from C57BL/6J mice were applied for the coculture of BMDCs with ID8 tumor cells. Human dendritic cells purchased from Lonza were used for the coculture of human DCs with DMSO or olaparib-treated human ovarian cancer cells ([…] and UWB1.289+BRCA1).
About 50 to 100 mg of tumor samples were homogenized in 1 ml of TRIzol™ Reagent supplied with 200 μl of stainless steel beads and 0.2 ml of chloroform was added to the samples. Samples were vortexed vigorously for 15 seconds and then incubated at room temperature for 2 to 3 minutes. After centrifugation at 12,000×g for 15 minutes at 4° C., upper aqueous phase of the samples was carefully removed to a new tube and the total RNA was purified using an RNeasy® Mini Kit (Qiagen) according to manufactory's instruction. For the in vitro cultured cell samples, total RNA was isolated using an RNeasy® Mini Kit. The qPCR was performed on an Applied Biosystems 7300 machine after the total RNA was reverse transcribed to cDNA using the SuperScript® III First-Strand Synthesis System (Invitrogen). Primers used for qPCR were as follows: […]

In assay [4] the test system is Brca1-proficient and Brca1-deficient tumor cells. The assay is described as follows: Measurement of IC50 value in tumor cells (MTS, 72 h). The assay is classed as cell-based. The conditions noted are these: three pairs of models; for gemcitabine except PPM and PBM cells. Here is the method: Tumor cells were seeded in 96-well plates at a density of 1000-3000/well and allowed to adhere overnight. Cells were then exposed to appropriate concentrations of therapeutic agents (or vehicle control) with continuous exposure for 72 h. Growth inhibition was measured by CellTiter Aqueous MTS reagent from Promega by comparing the absorbance at 490 nm of drug-treated cells to that of untreated controls set at 100%. 1C50 values were calculated using non-linear regression model (logarithmic inhibitor vs. normalized response-variable slope) in Graphpad Prism 7.

The next assay relates to PBM and PPM tumor cells. The assay is described as follows: Western blot of cGAS-STING signaling in tumor cells. The assay is classed as cell-based, mouse. A general note: Immunoblotting shows a protein as a band on a membrane.

In the case of `O=C(c1cc(Cc2n[nH]c(=O)c3ccccc23)ccc1F)N1CCN(C(=O)C2CC2)CC1` [olaparib, Olaparib], in the assay with PPM tumor bearing mice, the “intratumoral immune responses in PPM tumor bearing mice” value is given as “not found”. In the assay with PBM tumor-bearing mice, the “IFN gamma and TNF alpha production by peripheral blood CD8+ T cells” value was “enhanced”; the “expression of PD-1, Tim3, and Lag3 co-inhibitory receptors on splenic CD8+ T cells” value is given as “reduced”; the “gMDSC and mMDSC in the peripheral blood” value is given as “decreased”; the “number of CD8+ T cells in the spleens” value is on record as “significantly increased”. Further, the “number of MDSCs in the spleens” value with PBM tumor-bearing mice was “significantly reduced”. In addition, in assay [1], the “phosphorylation of TBK1 and IRF3 in intratumoral DCs and macrophages” value is given as “increased pTBK1+p-IRF3+”. Moreover, the “phosphorylation of TBK1 and IRF3 in intratumoral DCs and macrophages” value in assay [1] (listed as Olaparib) was “increased phosphorylation”. Also, the “IFN-β and CXCL10 expression in PBM tumor tissues” value in assay [1] (RT-qPCR) is “induction; also recorded: Increased expression”. The “hallmarks of STING pathway activation in PPM tumors” value in assay [2] was “not observed”. For the same molecule, in assay [3] (co-cultured with olaparib-treated PBM cells vs DMSO), the “phosphorylation of TBK1 and IRF3 (p-TBK1+p-IRF3+) in BMDCs” value is on record as “increased phosphorylation”. The “IFN-β and CXCL10 expression in BMDCs” value in assay [3] (co-cultured with olaparib-treated vs non-treated/DMSO PBM cells, mRNA and protein) was “Significantly enhanced expression; also recorded: markedly increased expression”. The “IC50 values, Brca1-deficient lines in comparison to Brca1-proficient counterparts” value in assay [4] is given as “much more sensitive”. The “STING signaling activity in tumor cells” value in the assay with PBM and PPM tumor cells is reported as “little STING signaling activity”.

Source of the values: US20200268864A1, “CANCER VACCINE COMPOSITIONS AND METHODS FOR USING SAME TO TREAT CANCER” (Dana-Farber Cancer Institute, Inc., priority 2017, published 2020).
